pKi: −log10 of the molar value. Starred links: 1 amine or outer side, 2 acyl side, 3 side chain; linkers in the order of their positions; H or OH if unused. Non-standard residues stand in square brackets, D forms with d. Residues, ends and D or L forms follow the SMILES beside them. X2 = O=C(c1cc(CN[*:1])cc(Cc2ccc(O)cc2)c1)[*:2]; X1 = O=C(c1cc(Cc2ccc(O)cc2)cc(N[*:1])c1)[*:2]
Target: Type-2 angiotensin II receptor (Sus scrofa)
Assay: Binding affinity for angiotensin II receptor, type 2 in pig uterus myometrium using [125I]-Ang II as radioligand, in pH 7.4 Tris-HCl buffer for 1.5 hr at 25 degree C

CC(C)[C@H](NC(=O)[C@H](CCCNC(=N)N)NC(=O)[C@@H](N)CC(=O)O)C(=O)NCc1cc(Cc2ccc(O)cc2)cc(C(=O)N[C@@H](Cc2cnc[nH]2)C(=O)N2CCC[C@H]2C(=O)N[C@@H](Cc2ccccc2)C(=O)O)c1 [(S)-3-Amino-N-((S)-1-{1-[(S)-3-[2-[2-((S)-(S)-1-carboxy-2-phenyl-ethylcarbamoyl)-pyrrolidin-1-yl]-1-(3H-imidazol-4-ylmethyl)-2-oxo-ethylcarbamoyl]-5-(4-hydroxy-benzyl)-benzylcarbamoyl]-2-methyl-propylcarbamoyl}-4-guanidino-butyl)-succinamic acid] (H-DRV[X2]HPF-OH)
pKi: 8.73

CC(C)[C@H](NC(=O)[C@H](CCCNC(=N)N)NC(=O)[C@@H](N)CC(=O)O)C(=O)Nc1cc(Cc2ccc(O)cc2)cc(C(=O)N[C@@H](Cc2cnc[nH]2)C(=O)N2CCC[C@H]2C(=O)N[C@@H](Cc2ccccc2)C(=O)O)c1 [(S)-3-Amino-N-((S)-1-{(S)-1-[(S)-3-[2-[2-((S)-(S)-1-carboxy-2-phenyl-ethylcarbamoyl)-pyrrolidin-1-yl]-1-(3H-imidazol-4-ylmethyl)-2-oxo-ethylcarbamoyl]-5-(4-hydroxy-benzyl)-phenylcarbamoyl]-2-methyl-propylcarbamoyl}-4-guanidino-butyl)-succinamic acid] (H-DRV[X1]HPF-OH)
pKi: 8.01

N=C(N)NCCC[C@H](NC(=O)[C@@H](N)CC(=O)O)C(=O)NCc1cc(Cc2ccc(O)cc2)cc(C(=O)N[C@@H](Cc2cnc[nH]2)C(=O)N2CCC[C@H]2C(=O)N[C@@H](Cc2ccccc2)C(=O)O)c1 [(S)-3-Amino-N-{(S)-1-[3-[(S)-2-[2-((S)-(S)-1-carboxy-2-phenyl-ethylcarbamoyl)-pyrrolidin-1-yl]-1-(3H-imidazol-4-ylmethyl)-2-oxo-ethylcarbamoyl]-5-(4-hydroxy-benzyl)-benzylcarbamoyl]-4-guanidino-butyl}-succinamic acid] (H-DR[X2]HPF-OH)
pKi: 8.00

N=C(N)NCCC[C@H](NC(=O)[C@@H](N)CC(=O)O)C(=O)Nc1cc(Cc2ccc(O)cc2)cc(C(=O)N[C@@H](Cc2cnc[nH]2)C(=O)N2CCC[C@H]2C(=O)N[C@@H](Cc2ccccc2)C(=O)O)c1 [(S)-3-Amino-N-{(S)-1-[3-[(S)-2-[2-((S)-(S)-1-carboxy-2-phenyl-ethylcarbamoyl)-pyrrolidin-1-yl]-1-(3H-imidazol-4-ylmethyl)-2-oxo-ethylcarbamoyl]-5-(4-hydroxy-benzyl)-phenylcarbamoyl]-4-guanidino-butyl}-succinamic acid] (H-DR[X1]HPF-OH)
pKi: 7.38
